# In patent US9783513B2, “STAT3 inhibitors and their anticancer use” (Ohio State Innovation Foundation, priority 2012, dated 2017):
# Entries after “also recorded” stand apart in the source; their conditions may differ. Like-named read-outs stand apart in the source and are kept apart here.
# Key:
# [1] = test system: human sarcoma cell line RH30; assay: Cell viability (MTT) assay, RH30; assay type: cell-based
# Method: Human sarcoma cell lines (RD2, RH30, U2OS) were seeded in 96-well plates at a density of 3,000 cells per well. The cells were incubated at 37° C. for a period of 24 hours. Different concentrations of LY-5 (0.1-10 μM), LY-3 (0.1-20 μM), and LLL12 (0.1-10 μM) prepared as a 20 mM stock solution in sterile DMSO were added in triplicate to the plates in the presence of 10% FBS. 3-(4,5-Dimethylthiazolyl)-2, 5-diphenyltetrazoliumbromide (MTT) was added to evaluate cell viability. The absorbance was read at 595 nm. IC50 values were determined using SigmaPlot 9.0 Software (Systat Software, Inc., San Jose, Calif.).
# Alternatively, cells were seeded in 96-well plates in triplicate at a density of 3,000 cells per well and given 24 hours to adhere. Cells were then treated with varying concentrations of the inhibitors in the presence of 10% FBS. The cells were incubated for 72 hours at 37° C. 25 μl of MTT dye (Sigma, #M5655) was added to each sample and incubated for 3.5 hours. After this, 100 μl of N,N-dimethylformamide (Sigma, #D4551) solubilization solution was added to each well. The absorbance at 450 nm was read the following day. Half-Maximal inhibitory concentrations (IC50) were determined using Sigma Plot 9.0 software (Systat Software Inc.).
# Table 7 below lists specific compounds as well as experimentally determined STAT3 activity in a cell-based assay. The STAT3 activity was determined using the cell viability assays with human sarcoma cell lines (RD2, RH30, U2OS) as described above. The compound reference numbers (“Ref. No.”) in Table 7 correspond to the compound numbers used in Table 3.
# [2] = test system: P-STAT3 induced by AZD6244; assay: Western blot, P-STAT3 induced by MEK inhibitor AZD6244; assay type: cell-based, human; conditions: 2 h
# [3] = test system: IL-6 induced STAT3 phosphorylation; assay: Western blot, IL-6 induced STAT3 phosphorylation; assay type: cell-based, human
# Method: RH30 cells were treated with DMSO, LY-5 (0.25-1 μM) and LY-3 (0.5-2.5 μM) prepared as a 20 mM stock solution in sterile DMSO at 60% to 80% confluence in the presence of 10% FBS for 24 hours. The sarcoma cell line EW8 was treated with DMSO and LY-5 (0.5-2.5 μM) prepared as a 20 mM stock solution in sterile DMSO at 60% to 80% confluence in the presence of 10% FBS for 24 hours. MCF-7 cells and DAOY cells were treated with DMSO, 25-50 ng/ml of IL-6, LY-5 (0.25-1 μM) or LY-3 (0.5-2.5 μM) prepared as a 20 mM stock solution in sterile DMSO, protein expressions of P-STAT3 (Tyr705) and STAT3 were tested. DAOY cells were treated with DMSO, 50 ng/ml of IFN-γ, LY-5 (1-5 μM) prepared as a 20 mM stock solution in sterile DMSO, protein expressions of P-STAT3 (Tyr705) and STAT3 were tested. MCF-7 cells were treated with DMSO, 50 ng/ml of OSM, LY-5 (1-2.5 μM) or LLL12 (1-2.5 μM) prepared as a 20 mM stock solution in sterile DMSO, protein expressions of P-STAT3 (Tyr705), P-STAT1, P-STAT5, P-ERK (T202/Y204), P-AKT, STAT3 and STAT1 were tested.
# The cells were harvested and lysed in cold radioimmunoprecipitation assay (RIPA) lysis buffer containing […] and phosphatase inhibitor cocktail, and were subjected to SDS-PAGE. Then they were transferred to PVDF membrane. Membranes were probed with primary antibodies (1:1,000) and horseradish peroxidase (HRP)-conjugated secondary antibody (1:10,000) (Cell Signaling Technology, Beverly, Mass.). Membranes were analyzed using Enhanced Chemiluminescence Plus reagents and scanned with the Storm Scanner (Amersham Pharmacia Biotech, Inc., Piscataway, N.J.).
# MCF-7 breast cancer cells were seeded in 10 cm plates and allowed to adhere overnight. The following day, the cells were serum-starved. The cells were then left untreated or were treated with LY-5 (0.25-1 μM) and LY-3 (0.5-2.5 μM) prepared as a 20 mM stock solution in sterile DMSO or DMSO. After 5 hours, the untreated and LY-5 and LY-3 treated cells were stimulated by IL-6 (25 ng/mL). The cells were harvested after 30 minutes and analyzed by Western blot. DAOY medulloblastoma cancer cells were seeded in 10 cm plates and allowed to adhere overnight. The following day, the cells were serum-starved. The cells were then left untreated or were treated with LY-5 (1-5 μM) prepared as a 20 mM stock solution in sterile DMSO or DMSO. After 2 hours, the untreated and LY-5 treated cells were stimulated by IL-6 (25 ng/mL). The cells were harvested after 30 minutes and analyzed by Western blot.
structure (smiles),measurement,setting,value
"NS(=O)(=O)c1cccc2c1C(=O)C=C(Nc1cccnc1)C2=O [LY-5, 5,8-dioxo-6-(pyridin-3-ylamino)-5,8-dihydronaphthalene-1-sulfonamide]",IC50,"[1]; Table 7, read-out: IC50 RH30",550 nM
same,IC50,"[1]; Table 8, read-out: IC50 values vs. cell lines, RH30",550 nM
same,P-STAT3 induced by AZD6244,"[2]; HCT-116, LY5+AZD6244 5 μM+10 μM",decrease in STAT3 phosphorylation
same,P-STAT3 induced by AZD6244,"[2]; MIA-PaCa-2, LY5+AZD 1 μM+10 μM",decrease in STAT3 phosphorylation
same,IL-6 induced STAT3 phosphorylation,"[3]; DAOY, up to 5 μM, 2 h",inhibits; also recorded: blocked the stimulation
same,IL-6 induced STAT3 phosphorylation,"[3]; DLD1, 0-5 μM, 2 h, IL-6 50 ng/mL",inhibits
same,IL-6 induced STAT3 phosphorylation,"[3]; MCF-7, LY-3 0.5-2.5 μM, LY-5 0.25-1 μM, 5 h, IL-6 25 ng/mL",inhibit; also recorded: blocked the stimulation
same,IL-6 induced STAT3 phosphorylation at Y705,"[3]; SJSA, 0-2.5 μM, 3 h",inhibits
